Article PMC6479817, “In Vitro and In Situ Characterization of the Intestinal Absorption of Capilliposide B and Capilliposide C from Lysimachia capillipes Hemsl” (Molecules, 2019)

Assays:
[1] = system: caco-2 cell monolayer; assay: Transport (permeability) across caco-2 cell monolayer, bidirectional, with and without inhibitors; type: in vitro ADME, human
Experimental: Caco-2 cells were routinely cultured in high glucose Dulbecco’s modified Eagle’s medium (DMEM) containing 10% fetal bovine serum (FBS), 1% nonessential amino acids, and 1% penicillin/streptomycin. Cells were kept at 37 °C in a 90% relative humidity atmosphere containing 5% CO2. Cells were seeded onto transwells purchased from Corning Costar Co. (New York, NY, USA) on 12-well plates for transport studies and uptake studies at 5 × 10^4 cells per insert. Cells were grown for 20 days. […] DMEM was removed and the monolayer was washed with Hank’s Balanced Salt Solution (HBSS). The blank HBSS was replaced by 0.4 mL of HBSS containing 40, 20 and 10 μg/mL of drug on the apical (AP) side and 2.1 mL of HBSS on the basolateral (BL) side. In the AP-BL direction studies, 0.4 mL of HBSS containing 40 μg/mL drug and P-gp inhibitor (53 μg/mL verapamil); MRP2 inhibitor (17.9 μg/mL indomethacin); or the co-inhibitor of P-gp, MRP2 and CYP3A4 (10 μg/mL cyclosporin A) were added to the AP side; 2.1 mL of HBSS was added to the BL side. In the BL-AP direction studies, 0.4 mL of HBSS containing 40 μg/mL drug and different inhibitors were added to the BL side, and 2.1 mL of HBSS was added to AP side. Samples (0.4 mL) were taken from the BL or AP side after 45, 60 and 90 min incubation at 37 °C. An additional 0.4 mL of HBSS was added at the same time. The concentrations of samples were analyzed by LC-MS. […] Linear regression was carried out to obtain the steady-state appearance rate of the drug on the receiver side.

[2] = system: caco-2 cells; assay: MTT colorimetric assay of caco-2 cell viability; type: cell-based, human; conditions: 24 h; for effect on cell growth (MTT): concentration less than 40 μg/mL; for effect on cell viability (MTT): concentration over 40 μg/mL
Experimental: The effects of CAPs on caco-2 cell viability were checked by 3-(4,5-dimethyl-2-thiazolyl)-2,5-diphenyl-2-H-tetrazolium bromide (MTT) colorimetric assay, which is adapted to analyze cell proliferation and drug cytotoxicity. […] In brief, caco-2 cells were seeded at 4 × 10^3 cells/well into 96-well culture plates and were incubated at 37 °C for 24 h before the assay. The cells were treated with different concentrations (0, 10, 20, 40, 80, 120, 160 and 240 μg/mL) of CAPs. After 24 h of incubation, 20 µL of MTT (5 mg/mL) was added to each well and the cells were incubated for another 4 h. After removing the culture medium, 100 µL of dimethyl sulfoxide was added to dissolve the contents in the plate. Then, the absorbance was measured at 570 and 630 nm (reference wavelength) using a microplate reader (Multiskan MK3; Thermo Fisher Scientific, Waltham, MA, USA).
Figure S2: Capilliposides (CAPs) inhibited the proliferation of caco-2 cells. Caco-2 cells were treated for 24 h with different concentrations (0, 10, 20, 40, 80, 120, 160 and 240 ug/mL) of CAPs. p < 0.05(*), comparison with the group of 0 ug/mL. All the results are expressed as mean ± S.D. (n=3).

[3] = system: intestinal segment (duodenum, jejunum, ileum); type: in vivo; conditions: rat; for change of Peff and Ka values at higher drug concentration (80 μg/mL) / change of Peff and Ka values between 20 and 50 μg/mL / increase of Peff with indomethacin / increase of intestinal transport with verapamil / order of Peff and Ka values in three intestinal segments: in vivo
Experimental: Male Sprague-Dawley (SD) rats (280 ± 30 g) were supplied by the Laboratory Animal Center, Zhejiang Chinese Medical University (Zhejiang, China). All animals were fasted overnight (12-18 h) with free access to water before experiments. All experiments were performed in accordance with the guidelines for the care and use of animals as established by the Laboratory Animal Centre, Zhejiang Chinese Medical University (Zhejiang, China) (approval number: ACXK20150016). The perfusion experiment was performed as previously reported. In brief, rats were fasted overnight but permitted to drink water freely the day before the experiments. After being anesthetized, the rats were placed on the surface of a thermostatic device and maintained at 37 °C. An incision of approximately 3 cm was made along the midline of the abdominal cavity to expose the contents of the abdomen. […] Then the incision was made at both sides of the segment. The intestinal contents were rinsed with saline preheated at 37 °C, drained with air, and connected to the perfusion system with the catheter. One-hundred […] of pre-prepared perfusate was taken and preheated at 37 °C. The perfusion was started at a circulation speed of 1.0 mL/min for 10 min. […] Samples were collected in glass tubes (2 mL/per) at 10-min intervals for 90 min. […] The rest of the samples were stored at -20 °C for further studies.

[4] = Stability in Krebsringer buffer (K-R buffer) at different pH values; type: physicochemical; conditions: pH 5.0, pH 6.55, pH 7.43
From the text: The SPIP model was used to further explore the intestinal permeability features of CAPB and CAPC in rats. Firstly, we determined the stability of CAPB and CAPC in the Krebsringer buffer (K-R buffer) across different pH values. […] In other words, CAPB and CAPC were stable in a weakly acidic environment. Because the pH of intestinal juice was close to 6.55, we used a K-R buffer at pH 6.55 as the perfusion solution.
Figure 4 The characterization of the intestinal permeability of capilliposide B (CAPB) and capilliposide C (CAPC) in single-pass intestinal perfusion (SPIP) model. The stability of CAPB and CAPC were measured at different pH values (pH 5, pH 6.55, and pH 7.34, respectively) (A). The absorption rate constants (ka, s^−1) values (B) and effective permeability (Peff, cm/s) values (C) for CAPB and CAPC at different initial drug concentrations (20 μg/mL, 50 μg/mL, and 80 μg/mL, respectively). p < 0.05 (*) compared with the group at 80 μg/mL. The Ka values (D) and Peff values (E) of CAPB and CAPC obtained from the duodenum, jejunum, and ileum in SPIP models. p < 0.05 (*) compared with the duodenum. All the results are expressed as mean ± S.D. (n = 3).

[5] = set-up: method as in PMID 24313264; conditions: cited from earlier work

Row | Papp [1] | Papp (BA)/Papp (AB) (efflux ratio, ER) [1] | Papp at high and medium vs lower concentration [1] | Papp over incubation time [1] | change of permeability in the presence of cyclosporin A [1] | change of permeability with cyclosporin A [3] | change of permeability with ketoconazole vs alone [3] | effective permeability (Peff) [3] | change of Peff and Ka values at higher drug concentration (80 μg/mL) [3] | change of Peff and Ka values between 20 and 50 μg/mL [3] | increase of Peff with indomethacin [3] | increase of intestinal transport with verapamil [3] | order of Peff and Ka values in three intestinal segments [3] | SMILES | effect on cell growth (MTT) [2] | effect on cell viability (MTT) [2] | stability in K-R buffer across pH values [4] | bioavailability and tissue exposure after oral administration [5]
1 | less than 2 × 10^−6 cm/s | 1.0-1.5 | significant increase in permeability | upward trend over time | only a small increase | increased slightly | minimal alteration of permeability | less than 0.2 × 10^−4 cm/s | significant decrease | slight increase | 2 fold | 1.5 fold | followed the same pattern as CAPB | CC1(C)C[C@H](O[C@@H]2O[C@H](CO)[C@@H](O)[C@H](O)[C@H]2O)[C@@]23[C@H](O)C[C@]4(C)[C@@](CC[C@@H]5[C@@]6(C)CC[C@H](O[C@@H]7OC[C@H](O[C@@H]8O[C@H](CO)[C@@H](O)[C@H](O)[C@H]8O[C@@H]8OC[C@@H](O)[C@H](O)[C@H]8O)[C@H](O)[C@H]7O[C@@H]7O[C@H](CO)[C@@H](O)[C@H](O)[C@H]7O)C(C)(C)[C@@H]6CC[C@]54C)(O[C@@H]2O)[C@@H]3C1 [CAPC, capilliposide C] | did not inhibit cell growth significantly | significantly decreased cell viability | more stable at pH 5.0 and pH 6.55 than pH 7.43 | poor bioavailability and low exposure in tissues
2 | less than 2 × 10^−6 cm/s | 1.0-1.5 | significant increase in permeability | upward trend over time | 10 fold | increased around two-fold | two-fold higher permeability | less than 0.2 × 10^−4 cm/s | significant increase | slight decline | 4.2 fold | 1.5 fold | duodenum > jejunum > ileum | CCCCCC(=O)O[C@H]1CC(C)(C)C[C@@H]2[C@@]13[C@H](O)C[C@]1(C)[C@@]2(CC[C@@H]2[C@@]4(C)CC[C@H](O[C@@H]5OC[C@H](O[C@@H]6O[C@H](CO)[C@@H](O)[C@H](O)[C@H]6O[C@@H]6OC[C@@H](O)[C@H](O)[C@H]6O)[C@H](O)[C@H]5O[C@@H]5O[C@H](CO)[C@@H](O)[C@H](O)[C@H]5O)C(C)(C)[C@@H]4CC[C@]21C)O[C@H]3O [CAPB, capilliposide B] | did not inhibit cell growth significantly | significantly decreased cell viability | more stable at pH 5.0 and pH 6.55 than pH 7.43 | poor bioavailability and low exposure in tissues
